Data on two compounds can be found in patent publication US9205122B2, “Herbal composition comprising ginger and goldenrod for the treatment of cold and flu” (priority 2009, dated 2015).

Data set [1] relates to Human Influenza Virus A/CA/04/09 H1N1. As to the kind of experiment: organism not typed. In kind it is cell-based. Conditions: A/CA/04/09, MDCK, 72 h; mix as PL202:PL208.
Data set [2] deals with human influenza virus A/WS/33, H1N1. Briefly: Plaque inhibition assay, influenza A/WS/33 on MDCK cell monolayer. In kind it is cell-based. Particulars: 0.05 mg/ml, read-out: inhibition of formation of lysis plaques.
Data set [3] has as its system influenza strain A/WS/33 (H1N1). As to the kind of experiment: Mouse influenza infection model (preventive and curative arms). Particulars: curative arm, oral daily from day 0; Tamiflu 10, Nutracan 350 mg/kg. Format: in vivo, CD-1 mice. The procedure: Ginger, goldenrod and a combination thereof were assayed in a recognized animal model related to the prevention and treatment of the influenza virus (Cottey R, 2001). In this study, the ginger was assayed as a dry plant (rhizome) […] a CO2 extract. However, the relative quantity of the ginger dry plant used was equivalent to the ginger CO2 extract used in Example 1 (equivalent to the dry starting material). The ginger/goldenrod combination that was used also comprised blueberry dry powder. This formulation is named the Nutracan™ formulation and is described in Table II below.
In this model, CD-1 mice (10 females per group) were inoculated intranasally with the influenza strain A/WS/33 (H1N1) at 1×10^3 PFU as determined in a preliminary study (data not shown). […]
1) Seven groups of CD1 mice were randomized based on their weight (n=10). […] Mice were sacrificed when their general state (including abnormal behaviour, determined by a veterinarian) had deteriorated or they had lost more than 20% of their weight.

Another data set relates to MDCK cells. Particulars: no virus, 72 h, mix as PL202:PL208.

In brackets after ≈: the same amount, converted by molar mass. Bounds are passed on as bounds.

Usually IC50 stands for the point on the concentration scale where inhibition reaches its midpoint. A higher IC50 goes with weaker potency. As for `NC(=O)c1ncn([C@@H]2O[C@H](CO)[C@@H](O)[C@H]2O)n1` [Ribavirin], the IC50 in data set [1] amounted to 5.26 µg/mL (≈ 21.5 µM).
Broadly, the inhibition is the change of the read-out against control, counted positive when it falls. As for `CCOC(=O)C1=C[C@@H](OC(CC)CC)[C@H](NC(C)=O)[C@@H](N)C1` [Tamiflu, Oseltamivir phosphate], in data set [2], the inhibition at 50 µg/mL came to 52%. The “MDD (mean day of death)” value in data set [3] was found to be 7.6. This compound registered an IC50 in data set [1] of 0.1 µg/mL. Besides, in the data set on MDCK cells, the TC50 was more than 10.3 µg/mL and the TC90 was more than 10.3 µg/mL.
